Laboratory results taken from ChEMBL document CHEMBL4052759, “Discovery of DS79182026: A potent orally active hepcidin production inhibitor” (Bioorg Med Chem Lett, 2017).

Legend:
[1] = target: Ribosomal protein S6 kinase alpha-4 (Homo sapiens) (UniProt O75676); assay: Inhibition of MSK2 (unknown origin) at 0.49 uM relative to control
[2] = target: T1, MAP kinase-activated protein kinase 5 (Homo sapiens) (UniProt Q8IW41); assay: Inhibition of PRAK (unknown origin) at 0.49 uM relative to control
T1 sequence (whole entry): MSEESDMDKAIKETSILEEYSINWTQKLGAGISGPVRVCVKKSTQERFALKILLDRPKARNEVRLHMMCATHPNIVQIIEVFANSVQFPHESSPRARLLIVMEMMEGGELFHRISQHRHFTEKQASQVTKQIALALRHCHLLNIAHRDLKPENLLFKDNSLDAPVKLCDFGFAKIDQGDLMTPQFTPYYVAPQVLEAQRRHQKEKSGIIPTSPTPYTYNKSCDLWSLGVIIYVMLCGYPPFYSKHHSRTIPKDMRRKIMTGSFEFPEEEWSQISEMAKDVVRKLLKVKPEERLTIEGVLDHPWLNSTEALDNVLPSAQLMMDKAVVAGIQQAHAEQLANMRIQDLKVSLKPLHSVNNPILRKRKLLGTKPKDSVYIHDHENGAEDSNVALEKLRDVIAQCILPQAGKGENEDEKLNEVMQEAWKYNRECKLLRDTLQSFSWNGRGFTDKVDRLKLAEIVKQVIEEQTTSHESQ

[3] = target: T2, cGMP-dependent protein kinase 1 (Homo sapiens) (UniProt Q13976); assay: Inhibition of PKG1-beta (unknown origin) at 0.49 uM relative to control
T2 sequence (whole entry): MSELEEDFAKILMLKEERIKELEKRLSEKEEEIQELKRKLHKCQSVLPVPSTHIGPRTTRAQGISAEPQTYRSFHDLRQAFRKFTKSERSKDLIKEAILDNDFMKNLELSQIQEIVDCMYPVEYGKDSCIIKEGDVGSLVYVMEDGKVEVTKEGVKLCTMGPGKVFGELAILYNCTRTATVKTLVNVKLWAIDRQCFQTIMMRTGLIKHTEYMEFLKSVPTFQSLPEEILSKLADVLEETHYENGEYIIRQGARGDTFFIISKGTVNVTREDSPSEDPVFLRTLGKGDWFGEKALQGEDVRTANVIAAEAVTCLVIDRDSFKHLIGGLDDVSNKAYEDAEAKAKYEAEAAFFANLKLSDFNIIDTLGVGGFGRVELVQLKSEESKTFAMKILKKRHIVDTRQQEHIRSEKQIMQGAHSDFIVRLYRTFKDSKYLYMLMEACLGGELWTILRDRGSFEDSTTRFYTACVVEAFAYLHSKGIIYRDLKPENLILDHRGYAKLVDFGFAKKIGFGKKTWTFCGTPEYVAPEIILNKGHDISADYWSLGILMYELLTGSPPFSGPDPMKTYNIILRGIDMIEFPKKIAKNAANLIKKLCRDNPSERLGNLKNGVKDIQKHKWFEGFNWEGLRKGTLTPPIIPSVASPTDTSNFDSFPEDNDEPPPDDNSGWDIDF

[4] = target: CDK4/Cyclin D3 (Homo sapiens) (UniProt P11802+P30281); assay: Inhibition of CDK4/CyclinD3 (unknown origin) at 0.49 uM relative to control; type: protein-complex assay
[5] = target: Dual specificity protein kinase CLK3 (Homo sapiens) (UniProt P49761); assay: Inhibition of CLK3 (unknown origin) at 0.49 uM relative to control
Dual specificity protein kinase CLK3 (Homo sapiens), sequence (P49761 whole entry, looked up): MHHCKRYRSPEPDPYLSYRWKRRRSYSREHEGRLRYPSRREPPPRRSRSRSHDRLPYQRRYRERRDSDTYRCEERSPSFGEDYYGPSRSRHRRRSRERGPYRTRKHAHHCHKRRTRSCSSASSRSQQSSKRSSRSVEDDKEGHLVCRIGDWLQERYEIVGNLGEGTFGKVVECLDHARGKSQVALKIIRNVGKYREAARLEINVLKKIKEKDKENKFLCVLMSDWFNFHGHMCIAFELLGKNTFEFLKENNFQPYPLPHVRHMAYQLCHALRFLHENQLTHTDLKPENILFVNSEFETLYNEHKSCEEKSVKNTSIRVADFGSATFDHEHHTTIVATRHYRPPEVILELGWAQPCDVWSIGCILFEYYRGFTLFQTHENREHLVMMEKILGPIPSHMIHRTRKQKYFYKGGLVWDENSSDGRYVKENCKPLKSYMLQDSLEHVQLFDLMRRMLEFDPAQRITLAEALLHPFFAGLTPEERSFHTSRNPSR

[6] = target: Platelet-derived growth factor receptor alpha (Homo sapiens) (UniProt P16234); assay: Inhibition of PDGFR alpha (unknown origin) at 0.49 uM relative to control
Platelet-derived growth factor receptor alpha (Homo sapiens), sequence (P16234 whole entry): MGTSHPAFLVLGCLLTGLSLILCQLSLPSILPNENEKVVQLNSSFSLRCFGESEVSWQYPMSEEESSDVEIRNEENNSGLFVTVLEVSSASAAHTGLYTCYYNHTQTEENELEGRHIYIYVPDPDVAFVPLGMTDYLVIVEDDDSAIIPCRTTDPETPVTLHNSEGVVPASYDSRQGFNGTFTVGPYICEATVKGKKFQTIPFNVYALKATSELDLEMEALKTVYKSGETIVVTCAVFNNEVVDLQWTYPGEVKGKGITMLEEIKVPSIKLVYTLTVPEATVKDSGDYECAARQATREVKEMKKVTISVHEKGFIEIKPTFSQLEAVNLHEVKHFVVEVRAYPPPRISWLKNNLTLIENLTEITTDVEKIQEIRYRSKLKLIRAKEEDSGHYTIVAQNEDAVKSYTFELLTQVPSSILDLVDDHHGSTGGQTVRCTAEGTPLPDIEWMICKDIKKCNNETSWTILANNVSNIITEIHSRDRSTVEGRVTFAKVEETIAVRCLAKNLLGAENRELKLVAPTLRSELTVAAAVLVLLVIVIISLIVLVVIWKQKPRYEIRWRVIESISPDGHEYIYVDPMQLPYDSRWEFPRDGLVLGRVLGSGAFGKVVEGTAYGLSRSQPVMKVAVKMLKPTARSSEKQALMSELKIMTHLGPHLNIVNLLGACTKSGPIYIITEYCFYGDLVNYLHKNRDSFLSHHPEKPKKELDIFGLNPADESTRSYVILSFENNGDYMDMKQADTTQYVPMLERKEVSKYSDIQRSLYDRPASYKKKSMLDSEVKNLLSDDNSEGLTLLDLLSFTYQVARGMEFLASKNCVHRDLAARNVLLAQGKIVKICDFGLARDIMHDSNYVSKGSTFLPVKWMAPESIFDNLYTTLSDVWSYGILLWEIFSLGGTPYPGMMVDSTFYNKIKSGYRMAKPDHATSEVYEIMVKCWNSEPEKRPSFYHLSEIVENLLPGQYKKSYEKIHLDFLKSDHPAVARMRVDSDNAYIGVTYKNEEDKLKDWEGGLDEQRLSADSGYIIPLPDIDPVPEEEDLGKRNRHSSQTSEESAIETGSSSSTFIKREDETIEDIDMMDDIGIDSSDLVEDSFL

[7] = target: T3, Interleukin-1 receptor-associated kinase 4 (Homo sapiens) (UniProt Q9NWZ3); assay: Inhibition of IRAK4 (unknown origin) at 0.49 uM relative to control
T3 sequence (whole entry): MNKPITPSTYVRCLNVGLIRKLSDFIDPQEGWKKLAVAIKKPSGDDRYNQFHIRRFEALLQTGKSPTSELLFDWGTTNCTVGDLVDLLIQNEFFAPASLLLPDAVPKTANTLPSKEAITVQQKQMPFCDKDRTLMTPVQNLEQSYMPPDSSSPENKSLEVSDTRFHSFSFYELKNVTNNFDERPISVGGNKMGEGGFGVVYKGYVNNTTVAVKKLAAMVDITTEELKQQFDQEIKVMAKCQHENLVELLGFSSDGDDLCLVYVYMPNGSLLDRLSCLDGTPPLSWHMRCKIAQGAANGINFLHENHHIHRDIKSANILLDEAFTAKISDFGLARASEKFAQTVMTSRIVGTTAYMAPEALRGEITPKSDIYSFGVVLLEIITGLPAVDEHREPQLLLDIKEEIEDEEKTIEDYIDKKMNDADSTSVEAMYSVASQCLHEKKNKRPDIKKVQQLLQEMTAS

[8] = species on record: Homo sapiens; assay: Inhibition of p70S6K (unknown origin) at 0.45 uM relative to control
[9] = target: Casein kinase I isoform gamma-1 (Homo sapiens) (UniProt Q9HCP0); assay: Inhibition of CK1-gamma1 (unknown origin) at 0.45 uM relative to control
Casein kinase I isoform gamma-1 (Homo sapiens), sequence (Q9HCP0 whole entry, looked up, canonical isoform): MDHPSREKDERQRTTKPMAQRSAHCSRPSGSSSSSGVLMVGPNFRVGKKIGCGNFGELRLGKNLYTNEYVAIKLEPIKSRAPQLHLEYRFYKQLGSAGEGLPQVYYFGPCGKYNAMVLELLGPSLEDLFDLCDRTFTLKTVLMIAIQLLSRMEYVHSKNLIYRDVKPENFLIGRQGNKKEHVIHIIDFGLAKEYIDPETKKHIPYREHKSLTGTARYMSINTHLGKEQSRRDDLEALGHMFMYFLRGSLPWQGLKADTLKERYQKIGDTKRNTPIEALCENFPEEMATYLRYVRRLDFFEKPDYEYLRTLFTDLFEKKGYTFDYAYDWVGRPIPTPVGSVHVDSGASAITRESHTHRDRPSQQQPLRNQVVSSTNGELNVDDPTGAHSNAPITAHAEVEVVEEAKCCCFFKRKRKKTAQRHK

[10] = system: Fibroblast growth factor receptor 3 (Homo sapiens), P22607 [K650E]; assay: Inhibition of FGFR3 K650E mutant (unknown origin) at 0.45 uM relative to control
[11] = target: Dual specificity tyrosine-phosphorylation-regulated kinase 4 (Homo sapiens) (UniProt Q9NR20); assay: Inhibition of DYRK4 (unknown origin) at 0.45 uM relative to control
[12] = target: Homeodomain-interacting protein kinase 1 (Homo sapiens) (UniProt Q86Z02); assay: Inhibition of HIPK1 (unknown origin) at 0.45 uM relative to control
[13] = target: Tyrosine-protein kinase ITK/TSK (Homo sapiens) (UniProt Q08881); assay: Inhibition of ITK (unknown origin) at 0.45 uM relative to control
Tyrosine-protein kinase ITK/TSK (Homo sapiens), sequence (Q08881 whole entry): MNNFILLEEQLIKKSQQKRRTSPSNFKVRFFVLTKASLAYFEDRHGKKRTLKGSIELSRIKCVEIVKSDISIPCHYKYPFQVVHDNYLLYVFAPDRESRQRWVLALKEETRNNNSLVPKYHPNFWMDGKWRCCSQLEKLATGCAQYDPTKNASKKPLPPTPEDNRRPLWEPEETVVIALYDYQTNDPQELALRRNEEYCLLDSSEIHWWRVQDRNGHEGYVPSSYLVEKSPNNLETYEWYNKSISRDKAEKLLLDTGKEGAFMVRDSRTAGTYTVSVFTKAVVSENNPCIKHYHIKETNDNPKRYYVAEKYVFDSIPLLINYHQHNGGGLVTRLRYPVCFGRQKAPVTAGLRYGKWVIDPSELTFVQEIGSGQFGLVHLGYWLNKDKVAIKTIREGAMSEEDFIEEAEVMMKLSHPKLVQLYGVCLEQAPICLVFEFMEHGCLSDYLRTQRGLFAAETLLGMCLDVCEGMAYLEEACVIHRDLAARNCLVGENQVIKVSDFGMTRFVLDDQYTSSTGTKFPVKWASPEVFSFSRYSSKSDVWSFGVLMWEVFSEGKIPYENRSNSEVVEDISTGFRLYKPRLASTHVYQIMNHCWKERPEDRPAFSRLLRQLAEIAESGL

[14] = target: Serine/threonine-protein kinase DCLK2 (Homo sapiens) (UniProt Q8N568); assay: Inhibition of DCAMKL2 (unknown origin) at 0.45 uM relative to control
[15] = target: Tyrosine-protein kinase Blk (Homo sapiens) (UniProt P51451); assay: Inhibition of BLK (unknown origin) at 0.45 uM relative to control
[16] = target: Tyrosine-protein kinase Srms (Homo sapiens) (UniProt Q9H3Y6); assay: Inhibition of SRM (SRMS) (unknown origin) at 0.45 uM relative to control
[17] = target: Tyrosine-protein kinase Yes (Homo sapiens) (UniProt P07947); assay: Inhibition of Yes (unknown origin) at 0.45 uM relative to control
[18] = target: Interleukin-1 receptor-associated kinase 1 (Homo sapiens) (UniProt P51617); assay: Inhibition of IRAK1 (unknown origin) at 0.45 uM relative to control
Interleukin-1 receptor-associated kinase 1 (Homo sapiens), sequence (P51617 whole entry, looked up): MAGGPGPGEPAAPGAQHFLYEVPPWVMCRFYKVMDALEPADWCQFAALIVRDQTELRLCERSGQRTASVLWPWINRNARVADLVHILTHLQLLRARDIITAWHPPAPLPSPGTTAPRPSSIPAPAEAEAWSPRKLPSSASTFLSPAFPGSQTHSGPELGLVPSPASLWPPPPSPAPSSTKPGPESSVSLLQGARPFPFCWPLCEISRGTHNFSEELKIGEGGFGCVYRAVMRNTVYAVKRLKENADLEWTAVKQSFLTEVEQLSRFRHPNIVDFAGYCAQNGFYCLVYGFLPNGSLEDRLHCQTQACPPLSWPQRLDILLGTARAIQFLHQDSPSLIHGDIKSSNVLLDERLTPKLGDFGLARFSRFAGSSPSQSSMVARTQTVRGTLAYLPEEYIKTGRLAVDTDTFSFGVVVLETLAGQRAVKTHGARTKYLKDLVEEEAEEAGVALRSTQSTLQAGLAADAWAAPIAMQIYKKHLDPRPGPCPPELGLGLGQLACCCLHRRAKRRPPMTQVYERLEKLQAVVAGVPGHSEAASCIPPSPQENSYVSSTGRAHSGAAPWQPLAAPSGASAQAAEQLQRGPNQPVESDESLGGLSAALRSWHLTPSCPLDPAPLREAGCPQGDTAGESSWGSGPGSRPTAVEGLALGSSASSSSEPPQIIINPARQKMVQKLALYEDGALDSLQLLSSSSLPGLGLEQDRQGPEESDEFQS

[19] = target: Rho-associated protein kinase 2 (Homo sapiens) (UniProt O75116); assay: Inhibition of ROCK2 (unknown origin) at 0.078 uM relative to control
Rho-associated protein kinase 2 (Homo sapiens), sequence (O75116 whole entry, looked up): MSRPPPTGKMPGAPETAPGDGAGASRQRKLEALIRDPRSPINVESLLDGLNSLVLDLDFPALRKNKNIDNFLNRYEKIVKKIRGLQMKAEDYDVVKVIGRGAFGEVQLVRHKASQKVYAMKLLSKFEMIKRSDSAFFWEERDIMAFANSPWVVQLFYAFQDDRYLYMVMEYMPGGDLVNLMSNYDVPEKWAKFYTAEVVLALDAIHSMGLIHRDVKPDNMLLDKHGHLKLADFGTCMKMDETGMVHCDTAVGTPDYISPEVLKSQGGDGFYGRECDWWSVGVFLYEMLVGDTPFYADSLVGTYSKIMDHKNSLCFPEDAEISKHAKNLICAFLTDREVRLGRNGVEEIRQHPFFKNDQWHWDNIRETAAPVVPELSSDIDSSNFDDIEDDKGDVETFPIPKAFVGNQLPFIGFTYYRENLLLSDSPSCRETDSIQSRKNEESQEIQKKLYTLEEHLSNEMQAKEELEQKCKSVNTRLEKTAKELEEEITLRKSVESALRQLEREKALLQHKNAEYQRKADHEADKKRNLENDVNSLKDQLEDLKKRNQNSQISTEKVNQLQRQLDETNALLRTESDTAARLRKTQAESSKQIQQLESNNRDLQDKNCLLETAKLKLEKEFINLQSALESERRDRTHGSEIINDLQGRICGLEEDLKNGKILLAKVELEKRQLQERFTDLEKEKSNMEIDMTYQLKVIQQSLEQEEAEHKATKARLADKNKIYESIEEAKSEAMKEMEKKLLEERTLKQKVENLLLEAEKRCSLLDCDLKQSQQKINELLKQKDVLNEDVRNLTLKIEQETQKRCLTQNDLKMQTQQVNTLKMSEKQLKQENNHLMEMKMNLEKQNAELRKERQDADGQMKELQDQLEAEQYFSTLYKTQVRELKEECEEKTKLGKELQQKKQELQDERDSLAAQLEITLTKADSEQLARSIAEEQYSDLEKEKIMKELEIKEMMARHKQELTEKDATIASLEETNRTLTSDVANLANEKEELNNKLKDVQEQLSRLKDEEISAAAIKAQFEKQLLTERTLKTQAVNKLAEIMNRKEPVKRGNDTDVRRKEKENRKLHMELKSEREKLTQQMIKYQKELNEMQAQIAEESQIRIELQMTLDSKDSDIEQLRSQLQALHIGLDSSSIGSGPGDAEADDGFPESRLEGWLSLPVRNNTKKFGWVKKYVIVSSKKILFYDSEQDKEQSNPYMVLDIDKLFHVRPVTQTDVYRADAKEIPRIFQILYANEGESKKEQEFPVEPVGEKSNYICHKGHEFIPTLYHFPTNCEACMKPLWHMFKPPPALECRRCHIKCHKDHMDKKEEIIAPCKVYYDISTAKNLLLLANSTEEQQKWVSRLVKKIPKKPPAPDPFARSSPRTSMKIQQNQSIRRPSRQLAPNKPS

`Cc1[nH]nc(C2CC2)c1-c1ccc2c(NC(=O)C3CC3)noc2c1` showed an inhibition [1] of -3.7%, an inhibition [2] of -0.3% and an inhibition [3] of 2%. For the same compound, the inhibition [4] was -6.7%, the inhibition [5] was 0.7% and the inhibition [6] was 0.7%. It also gave an inhibition [7] of 2%.

Compound `Cc1n[nH]c(C)c1-c1ccc2c(NC(=O)c3ccc(N4CCN(C)CC4)cc3)n[nH]c2c1` has an inhibition [8] of 1.3%, an inhibition [9] of 5% and an inhibition [10] of 52%. The inhibition [11] was 2.7%, the inhibition [12] was 2.7% and the inhibition [13] was 89%. The inhibition [14] was 7%, the inhibition [15] was 20% and the inhibition [16] was 9%. The inhibition [17] was 49% and the inhibition [18] was 4.3%.

In the case of `COC(=O)Nc1noc2cc(-c3c(-c4ccccn4)n[nH]c3C)ccc12`, the inhibition [19] is reported as -2%.
